How the values were obtained:
[1] = N-methylserotonin degradation test in bacterial monocultures; conditions: 5 ng/ml added to monocultures of the 14 strains, 72-hour period
Experimental: Experiments to determine whether N-methylserotonin is synthesized de novo by B. ovatus were carried out in 10 mL TYG with or without supplementation with tryptophan, tryptamine, serotonin, dimethylserotonin, trimethylserotonin, methyltryptamine, or S-adenosyl methionine (final concentrations; 5 mg/mL; all from Sigma). Experiments seeking to test the capacity of all 14 bacterial strains introduced into mice to degrade N-methylserotonin in vitro were carried out using 10 mL TYG and 50 ng N-methylserotonin, with samples collected every 24 hours. Assays were performed in triplicate for each condition, using the protocol described herein.
Several other experiments were performed to characterize in vitro N-methylserotonin liberation by members of the 14 strain consortia.

[2] = test system: colon gene expression; experiment: RNA-Seq of colonic tissue of germ-free mice treated with 50 mg/kg/d N-methylserotonin; type: in vivo, germ-free C57BL/6J mice; conditions: for log2 fold-change: colon

CNCCc1c[nH]c2ccc(O)cc12 [N-methylserotonin]
input N-methylserotonin remaining intact/unmodified [1]: 97±2%
colonic expression of known (Htr7, Htr2A) or related (Htr3, Htr4, Htr5 and Htr6) receptors ([2]; 50 mg/kg/d vs untreated): did not reveal any statistically significant effects
number of genes with statistically significant differences in expression in colonic tissue ([2]; 50 mg/kg/d vs untreated, FDR-adjusted p<0.05): Seven hundred and forty-eight
log2 fold-change ([2]; gene 6430548M08Rik): 0.47
log2 fold-change ([2]; gene Aass): 4.35
log2 fold-change ([2]; gene Adgrg6): 1.06
log2 fold-change ([2]; gene Adgrl1): 0.82
log2 fold-change ([2]; gene Aldh1l2): 1.36
log2 fold-change ([2]; gene Ankrd35): 1.27
log2 fold-change ([2]; gene Anxa9): 3.41
log2 fold-change ([2]; gene Arhgef17): 0.43
log2 fold-change ([2]; gene Atf5): 0.70
log2 fold-change ([2]; gene Atp6v1c2): 5.46
log2 fold-change ([2]; gene Azgp1): 3.05
log2 fold-change ([2]; gene Baiap2): 0.55
log2 fold-change ([2]; gene Bcl9l): 0.57
log2 fold-change ([2]; gene Bhlha15): 2.54
log2 fold-change ([2]; gene C1s2): 6.81
log2 fold-change ([2]; gene Cabp1): 2.18
log2 fold-change ([2]; gene Cbx6): 0.65
log2 fold-change ([2]; gene Cecr2): 1.23
log2 fold-change ([2]; gene Cirbp): 0.65
log2 fold-change ([2]; gene Clca4a): 0.41
log2 fold-change ([2]; gene Col18a1): 0.40
log2 fold-change ([2]; gene Crybg2): 0.56
log2 fold-change ([2]; gene Dbp): 1.14
log2 fold-change ([2]; gene Derl3): 3.02
log2 fold-change ([2]; gene Dixdc1): 0.49
log2 fold-change ([2]; gene Dkkl1): 4.99
log2 fold-change ([2]; gene Dnase2b): 6.74
log2 fold-change ([2]; gene Doxl2): 0.01
log2 fold-change ([2]; gene Epop): 1.75
log2 fold-change ([2]; gene Fam214a): 0.49
log2 fold-change ([2]; gene Fbf1): 0.51
log2 fold-change ([2]; gene Fgl1): 3.75
log2 fold-change ([2]; gene Gdf7): 2.66
log2 fold-change ([2]; gene Gdf10): 0.91
log2 fold-change ([2]; gene Gm973): 1.71
log2 fold-change ([2]; gene Gprc5c): 2.14
log2 fold-change ([2]; gene Gsdma): 3.93
log2 fold-change ([2]; gene Gspt2): 1.14
log2 fold-change ([2]; gene Hdac7): 0.63
log2 fold-change ([2]; gene Hoxd9): 1.18
log2 fold-change ([2]; gene Igfbp5): 0.78
log2 fold-change ([2]; gene Impdh1): 0.53
log2 fold-change ([2]; gene Islr): 0.52
log2 fold-change ([2]; gene Itpripl2): 0.42
log2 fold-change ([2]; gene Jag2): 0.92
log2 fold-change ([2]; gene Kdm6b): 0.57
log2 fold-change ([2]; gene Krt14): 2.57
log2 fold-change ([2]; gene Lamc1): 0.37
log2 fold-change ([2]; gene Lrrc75b): 2.59
log2 fold-change ([2]; gene Man2a2): 0.35
log2 fold-change ([2]; gene Masp1): 1.38
log2 fold-change ([2]; gene Mns1): 1.12
log2 fold-change ([2]; gene Mtss2): 0.61
log2 fold-change ([2]; gene Mxra8): 0.45
log2 fold-change ([2]; gene Nkx3-1): 0.01
log2 fold-change ([2]; gene Npr1): 0.99
log2 fold-change ([2]; gene Nr1d1): 0.81
log2 fold-change ([2]; gene Nucb2): 3.53
log2 fold-change ([2]; gene Pacsin3): 0.87
log2 fold-change ([2]; gene Panct2): 1.72
log2 fold-change ([2]; gene Pate4): 7.55
log2 fold-change ([2]; gene Pate9): 0.01
log2 fold-change ([2]; gene Pate14): 6.47
log2 fold-change ([2]; gene Per2): 0.67
log2 fold-change ([2]; gene Pgm5): 0.29
log2 fold-change ([2]; gene Pik3ip1): 1.04
log2 fold-change ([2]; gene Pitpnm3): 0.67
log2 fold-change ([2]; gene Plau): 0.93
log2 fold-change ([2]; gene Pou3f3): 1.18
log2 fold-change ([2]; gene Prrc2a): 0.49
log2 fold-change ([2]; gene Ptges): 1.14
log2 fold-change ([2]; gene Rapgef3): 0.54
log2 fold-change ([2]; gene Rbms3): 0.45
log2 fold-change ([2]; gene Rcn1): 2.72
log2 fold-change ([2]; gene Rec8): 1.38
log2 fold-change ([2]; gene Rgs7bp): 0.57
log2 fold-change ([2]; gene Rhobtb3): 0.86
log2 fold-change ([2]; gene Serpine2): 2.50
log2 fold-change ([2]; gene Serpinf1): 0.82
log2 fold-change ([2]; gene Shroom1): 2.33
log2 fold-change ([2]; gene Slc4a8): 1.04
log2 fold-change ([2]; gene Slc23a1): 1.80
log2 fold-change ([2]; gene Sp8): 2.57
log2 fold-change ([2]; gene Spinkl): 7.58
log2 fold-change ([2]; gene Spock2): 0.54
log2 fold-change ([2]; gene Sptb): 0.85
log2 fold-change ([2]; gene Stard5): 0.43
log2 fold-change ([2]; gene Sva): 6.86
log2 fold-change ([2]; gene Syvn1): 0.58
log2 fold-change ([2]; gene Tgfbr3): 0.43
log2 fold-change ([2]; gene Tgm4): 9.55
log2 fold-change ([2]; gene Tmem44): 0.56
log2 fold-change ([2]; gene Tns1): 0.44
log2 fold-change ([2]; gene Uox): 2.40
log2 fold-change ([2]; gene Upk1b): 2.61
log2 fold-change ([2]; gene Vat1): 0.64
log2 fold-change ([2]; gene Vwa1): 0.64
log2 fold-change ([2]; gene Zbtb4): 0.37
log2 fold-change ([2]; gene Zbtb16): 1.21
log2 fold-change ([2]; gene Zfhx3): 0.54
